Read-outs that look alike come from different tables or passages of the source.
Columns and labels:
[1] = biological target: GDP-bound KRAS protein (aa 1-169), containing both G12C and C118A amino acid substitutions (Homo sapiens, UniProt P01116, C118A/G12C); assay: Coupled nucleotide exchange assay (SOS-mediated, AlphaScreen); format: biochemical; settings: 5 min compound pre-incubation
[2] = system: Phosphorylation of ERK1/2 in MIA PaCa-2 cells; assay: Phospho-ERK1/2 MSD assay in MIA PaCa-2 cells; format: cell-based; settings: read-out: p-ERK IC50 (2 h; MIA PaCa-2), 2 h compound treatment
In short: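 MIA PaCa-2 or A549 cells were treated with a compound dose-response titration for 2 or 4 h at 37 °C, then stimulated with 10 ng/mL EGF for 10 min. Phospho-ERK1/2 in RIPA lysates was measured by MSD whole-cell lysate immunoassay, and IC50 came from a 4-parameter logistic fit.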

GDP-bound KRAS protein (aa 1-169), containing both G12C and C118A amino acid substitutions, sequence (P01116 1-169 isoform P01116-2 G12C/C118A): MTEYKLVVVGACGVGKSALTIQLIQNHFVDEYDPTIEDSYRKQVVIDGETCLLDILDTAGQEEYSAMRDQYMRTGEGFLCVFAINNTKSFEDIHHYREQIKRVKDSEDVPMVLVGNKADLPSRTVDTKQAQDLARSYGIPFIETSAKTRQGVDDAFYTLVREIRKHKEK

Coupled exchange IC50 (5 min) [1]	IC50 ([2]; Homo sapiens, MIA PaCa-2, 2 h)	IC50 [2]	Structure (SMILES)
0.221 | nda μM	107 nM		C=CC(=O)N1CCN(c2nc(=O)n(-c3c(C(C)C)ncnc3C(C)C)c3nc(-c4ccccc4F)c(F)cc23)[C@@H](C)C1 [Example 57-5, 1-(4,6-di(2-propanyl)-5-pyrimidinyl)-6-fluoro-7-(2-fluorophenyl)-4-((2S)-2-methyl-4-(2-propenoyl)-1-piperazinyl)pyrido[2,3-d]pyrimidin-2(1H)-one]
0.433 | nda μM	740 nM		C=CC(=O)N1CCN(c2nc(=O)n(-c3c(C)cccc3C3CC3)c3nc(-c4ccccc4F)c(Cl)cc23)[C@@H](C)C1 [Example 56-5, 6-chloro-1-(2-cyclopropyl-6-methylphenyl)-7-(2-fluorophenyl)-4-((2S)-2-methyl-4-(2-propenoyl)-1-piperazinyl)pyrido[2,3-d]pyrimidin-2(1H)-one]
0.326 | nda μM	171 nM		C=CC(=O)N1CCN(c2nc(=O)n(-c3ccccc3C(C)C)c3nc(-c4cc(F)ccc4O)c(Cl)cc23)[C@@H](C)C1 [Example 54-78, 6-chloro-7-(5-fluoro-2-hydroxyphenyl)-4-((2S)-2-methyl-4-(2-propenoyl)-1-piperazinyl)-1-(2-(2-propanyl)phenyl)pyrido [2,3-d]pyrimidin-2(1H)-one]
0.676 | nda μM		134 nM	C=CC(=O)N1CCN(c2nc(=O)n(-c3ccccc3C(C)C)c3nc(-c4cc(N)ccc4Cl)c(Cl)cc23)[C@@H](C)C1 (single isomer, unassigned) [Example 56-7-2]
0.058 | nda μM	43 nM		C=CC(=O)N1CCN(c2nc(=O)n(-c3c(CO)ccnc3C(C)C)c3nc(-c4ccccc4F)c(Cl)cc23)[C@@H](C)C1 (single isomer, unassigned) [Example 84-2]
0.112 | nda μM	137 nM		C=CC(=O)N1CCN(c2nc(=O)n(-c3c(F)cccc3C(C)C)c3nc(-c4c(O)cccc4F)c(F)cc23)[C@@H](C)C1 (single isomer, unassigned) [Example 59-2-1]
0.419 | nda μM	853 nM		C=CC(=O)N1CCN(c2nc(=O)n(-c3ccccc3C(C)C)c3nc(C4=CCCCC4)c(Cl)cc23)[C@@H](C)C1 (single isomer, unassigned) [Example 54-75-1]
0.807 | nda μM	410 nM		C=CC(=O)N1CCN(c2nc(=O)n(-c3c(C4CC4)ccnc3C)c3nc(-c4ccccc4F)c(F)cc23)[C@@H](C)C1 (single isomer, unassigned) [Example 58-20-2]
0.108 | nda μM	81 nM		C=CC(=O)N1CCN(c2nc(=O)n(-c3c(C)ncnc3C3CC3)c3nc(-c4ccccc4F)c(Cl)cc23)[C@@H](C)C1 (single isomer, unassigned) [Example 60-30-2]
0.623 | nda μM	842 nM		C=CC(=O)N1CCN(c2nc(=O)n(-c3c(C)ccnc3C(C)C)c3nc(-c4cc(N)ccc4F)c(F)cc23)[C@@H](C)C1 [Example 58-6]
0.149 | nda μM	149 nM		C=CC(=O)N1CCN(c2nc(=O)n(-c3ncccc3CC)c3nc(-c4c(O)cccc4F)c(Cl)cc23)[C@@H](C)C1 [Example 54-16, 6-chloro-1-(3-ethyl-2-pyridinyl)-7-(2-fluoro-6-hydroxyphenyl)-4-((2S)-2-methyl-4-(2-propenoyl)-1-piperazinyl) pyrido[2,3-d]pyrimidin-2(1H)-one]
0.218 | nda μM	200 nM		C=CC(=O)N1CCN(c2nc(=O)n(-c3c(C)ncnc3C3CC3)c3nc(-c4ccccc4F)c(Cl)cc23)[C@@H](C)C1 [Example 60-30, 6-chloro-1-(4-cyclopropyl-6-methyl-5-pyrimidinyl)-7-(2-fluorophenyl)-4-((2S)-2-methyl-4-(2-propenoyl)-1-piperazinyl)pyrido[2,3-d]pyrimidin-2(1H)-one]
1.75 | nda μM	1590 nM		C=CC(=O)N1CCN(c2nnc(-c3c(C(C)C)cccc3C(C)C)c3nc(-c4ccccc4F)c(Cl)cc23)[C@@H](C)C1 [Example 138, 1-((3S)-4-(3-Chloro-8-(2,6-di(2-propanyl)phenyl)-2-(2-fluorophenyl)pyrido[2,3-d]pyridazin-5-yl)-3-methyl-1-piperazinyl)-2-propen-1-one]
0.108 | nda μM	263 nM		C=CC(=O)N1CCN(c2nc(=O)n(-c3ccccc3C(C)C)c3nc(-c4cc(OC(F)F)ccc4F)c(Cl)cc23)[C@@H](C)C1 (single isomer, unassigned) [Example 54-51-1]
0.084 | nda μM	222 nM		C=CC(=O)N1CCN(c2nc(=O)n(-c3cccnc3C(C)(C)C)c3nc(-c4ccccc4F)c(Cl)cc23)[C@@H](C)C1 [Example 54-112, 6-chloro-7-(2-fluorophenyl)-1-(2-(2-methyl-2-propanyl)-3-pyridinyl)-4-((2S)-2-methyl-4-(2-propenoyl)-1-piperazinyl) pyrido[2,3-d]pyrimidin-2(1H)-one]
0.113 | nda μM	74 nM		C=CC(=O)N1CCN(c2nc(=O)n(-c3ncccc3C(=C)C)c3nc(-c4c(O)cccc4F)c(Cl)cc23)[C@@H](C)C1 [Example 55-24, 6-chloro-7-(2-fluoro-6-hydroxyphenyl)-4-((2S)-2-methyl-4-(2-propenoyl)-1-piperazinyl)-1-(3-(1-propen-2-yl)-2-pyridinyl)pyrido[2,3-d]pyrimidin-2(1H)-one]
0.732 | nda μM	894 nM		C=CC(=O)N1CCN(c2nc(=O)n(-c3c(CC)ncnc3CC)c3nc(-c4c(O)cccc4F)c(F)cc23)[C@@H](C)C1 [Example 58-23, 1-(4,6-diethyl-5-pyrimidinyl)-6-fluoro-7-(2-fluoro-6-hydroxyphenyl)-4-((2S)-2-methyl-4-(2-propenoyl)-1-piperazinyl)pyrido[2,3-d]pyrimidin-2(1H)-one]
0.208 | nda μM	260 nM		C=CC(=O)N1CCN(c2nc(=O)n(-c3nccnc3C(C)(C)C)c3nc(-c4c(O)cccc4F)c(Cl)cc23)[C@@H](C)C1 [Example 55-23]
0.953 | nda μM	508 nM		C=CC(=O)N1CCN(c2nc(=O)n(-c3c(C)ncnc3C(C)C)c3nc(-c4ccccc4F)c(F)cc23)[C@@H](C)C1 [Example 58-12, 6-fluoro-7-(2-fluorophenyl)-1-(4-methyl-6-(2-propanyl)-5-pyrimidinyl)-4-((2S)-2-methyl-4-(2-propenoyl)-1-piperazinyl)pyrido[2,3-d]pyrimidin-2(1H)-one]
0.133 | nda μM	578 nM		C=CC(=O)N1CCN(c2nc(=O)n(-c3cncnc3C3(C)CC3)c3nc(-c4c(O)cccc4F)c(Cl)cc23)[C@@H](C)C1 [Example 54-55, 6-chloro-7-(2-fluoro-6-hydroxyphenyl)-1-(4-(1-methyl-cyclopropyl)-5-pyrimidinyl)-4-((2S)-2-methyl-4-(2-propenoyl)-1-piperazinyl) pyrido[2,3-d]pyrimidin-2(1H)-one]
0.514 | nda μM	166 nM		C=CC(=O)N1CCN(c2nc(=O)n(-c3ccccc3C(C)C)c3nc(-c4ccccc4Cl)c(F)cc23)[C@@H](C)C1 (single isomer, unassigned) [Example 57-8-2]
0.033 | nda μM	39 nM		C=CC(=O)N1CCN(c2nc(=O)n(-c3ccccc3C(C)C)c3nc(-c4cc(O)cc(Cl)c4Cl)c(Cl)cc23)[C@@H](C)C1 [Example 54-91, 6-chloro-7-(2,3-dichloro-5-hydroxy-phenyl)-4-((2S)-2-methyl-4-(2-propenoyl)-1-piperazinyl)-1-(2-(2-propanyl)phenyl)pyrido [2,3-d]pyrimidin-2(1H)-one]
0.218 | nda μM	158 nM		C=CC(=O)N1CCN(c2nc(=O)n(-c3ccccc3C(C)C)c3nc(-c4ccc(F)cc4O)c(Cl)cc23)[C@@H](C)C1 [Example 54-77, 6-chloro-7-(4-fluoro-2-hydroxy-phenyl)-4-((2S)-2-methyl-4-(2-propenoyl)-1-piperazinyl)-1-(2-(2-propanyl)phenyl)pyrido [2,3-d]pyrimidin-2(1H)-one]
0.212 | nda μM	114 nM		C=CC(=O)N1CCN(c2nc(=O)n(-c3c(C)ccnc3C(C)C)c3nc(-c4ccccc4F)c(F)cc23)[C@@H](C)C1 (single isomer, unassigned) [Example 58-4-1]
0.613 | nda μM		735 nM	C=CC(=O)N1CCN(c2nc(=O)n(-c3c(C)cccc3C(C)C)c3nc(-c4c(O)cccc4Cl)c(F)cc23)[C@@H](C)C1 (single isomer, unassigned) [Example 68-1-2]
0.072 | nda μM	98 nM		C=CC(=O)N1CCN(c2nc(=O)n(-c3ccccc3C(C)C)c3nc(-c4c(O)cccc4Cl)c(Cl)cc23)[C@@H](C)C1 [Example 54-79, 6-chloro-7-(2-chloro-6-hydroxy-phenyl)-4-((2S)-2-methyl-4-(2-propenoyl)-1-piperazinyl)-1-(2-(2-propanyl)phenyl)pyrido [2,3-d]pyrimidin-2(1H)-one]
0.05 | nda μM	103 nM		C=CC(=O)N1CCN(c2nc(=O)n(-c3c(C)ccnc3C(C)C)c3nc(-c4c(O)cccc4F)c(C)cc23)[C@@H](C)C1 (single isomer, unassigned) [Example 74-3-1]
